What was measured:
[1] = tested on: HCT-116; assay: Antiproliferative activity against human HCT-116 cells assessed as reduction in cell viability incubated for 24 hrs by MTT assay; format: functional, cell-based; settings: HCT-116, 24 h
[2] = tested on: SK-MEL-28; assay: Cytotoxicity against human SK-MEL-28 cells assessed as reduction in cell growth incubated for 24 hrs by MTT assay; format: functional
[3] = tested on: HL-60; assay: Growth inhibition of human HL-60 cells; format: functional
[4] = tested on: HepG2; assay: Cytotoxicity against human HepG2 cells assessed as reduction in cell growth incubated for 72 hrs by MTT assay; format: functional, cell-based; settings: HepG2, 72 h
[5] = tested on: PC-3; assay: Cytotoxicity against human PC-3 cells assessed as reduction in cell growth incubated for 72 hrs by MTT assay; format: functional, cell-based; settings: PC-3, 72 h
[6] = tested on: HL-60; assay: Cytotoxicity against human HL-60 cells assessed as reduction in cell growth incubated for 72 hrs by MTT assay; format: functional, cell-based; settings: HL-60, 72 h
[7] = tested on: HCT-116; assay: Cytotoxicity against human HCT-116 cells assessed as reduction in cell growth incubated for 72 hrs by MTT assay; format: functional, cell-based; settings: HCT-116, 72 h
[8] = tested on: SF-295; assay: Cytotoxicity against human SF-295 cells assessed as reduction in cell growth incubated for 72 hrs by MTT assay; format: functional, cell-based; settings: SF-295, 72 h
[9] = tested on: HepG2; assay: Cytotoxicity against human HepG2 cells; format: functional, cell-based
[10] = tested on: MCF7; assay: Cytotoxicity against human MCF7 cells; format: functional, cell-based
[11] = tested on: MCF7; assay: Cytotoxicity against human MCF7 cells assessed as reduction in cell viability incubated for 48 hrs by MTT assay; format: functional, cell-based; settings: MCF7, 48 h
[12] = tested on: MCF7; assay: Inhibition of colony formation in human MCF7 cells at 100 microM measured after 72 hrs by crystal violet staining based analysis relative to control; format: functional
[13] = tested on: A549; assay: Antiproliferative activity against human A549 cells assessed as reduction in cell viability measured for 48 hrs by WST-1 assay; format: functional, cell-based; settings: A549, 48 h
[14] = tested on: MOLT-4; assay: Antiproliferative activity against human MOLT-4 cells assessed as reduction in cell viability measured for 48 hrs by WST-1 assay; format: functional, cell-based; settings: MOLT-4, 48 h
[15] = tested on: HT-29; assay: Antiproliferative activity against human HT-29 cells assessed as reduction in cell viability measured for 48 hrs by WST-1 assay; format: functional, cell-based; settings: HT-29, 48 h
[16] = tested on: MCF7; assay: Antiproliferative activity against human MCF7 cells assessed as reduction in cell viability measured for 48 hrs by WST-1 assay; format: functional, cell-based; settings: MCF7, 48 h
[17] = tested on: HeLa; assay: Antiproliferative activity against human Hela cells assessed as reduction in cell viability measured for 48 hrs by WST-1 assay; format: functional, cell-based
[18] = tested on: MeWo; assay: Antiproliferative activity against human MeWo cells assessed as reduction in cell growth incubated for 48 hrs by MTT assay; format: functional, cell-based
[19] = tested on: A-375; assay: Antiproliferative activity against human A-375 cells assessed as reduction in cell growth incubated for 48 hrs by MTT assay; format: functional, cell-based; settings: A-375, 48 h
[20] = tested on: HeLa; assay: Antiproliferative activity against human HeLa cells assessed as reduction in cell viability incubated for 72 hrs by MTT assay; format: functional, cell-based
[21] = tested on: SK-BR-3; assay: Antiproliferative activity against human SK-BR-3 cells assessed as reduction in cell viability incubated for 24 hrs by alamar blue assay; format: functional, cell-based; settings: SK-BR-3, 24 h
[22] = tested on: MCF7; assay: Cytotoxicity against human MCF7 cells assessed as reduction in cell viability; format: functional, cell-based
[23] = tested on: Calu-3; assay: Cytotoxicity against human Calu-3 cells assessed as reduction in cell viability; format: functional, cell-based
[24] = tested on: MCF7; assay: Cytotoxicity against human MCF7 cells assessed as reduction in cell growth incubated for 72 hrs by MTT assay; format: functional, cell-based; settings: MCF7, 72 h
[25] = tested on: KYSE-70 cell line; assay: Cytotoxicity against human KYSE-70 cells assessed as reduction in cell viability incubated for 72 hrs by MTS assay; format: functional, cell-based; settings: KYSE-70, 72 h
[26] = tested on: KYSE-270; assay: Cytotoxicity against human KYSE-270 cells assessed as reduction in cell viability incubated for 72 hrs by MTS assay; format: functional, cell-based; settings: KYSE-270, 72 h
[27] = Selectivity index, ratio of IC50 for inhibition of CYP1B1 (unknown origin) to IC50 for inhibition of CYP1A1 (unknown origin)
[28] = molecular target: Cytochrome P450 1A1 (Homo sapiens, UniProt P04798); assay: Inhibition of CYP1A1 (unknown origin) expressed in HEK293 cells; format: ADME, cell-based
Sequence of Cytochrome P450 1A1 (P04798 whole entry): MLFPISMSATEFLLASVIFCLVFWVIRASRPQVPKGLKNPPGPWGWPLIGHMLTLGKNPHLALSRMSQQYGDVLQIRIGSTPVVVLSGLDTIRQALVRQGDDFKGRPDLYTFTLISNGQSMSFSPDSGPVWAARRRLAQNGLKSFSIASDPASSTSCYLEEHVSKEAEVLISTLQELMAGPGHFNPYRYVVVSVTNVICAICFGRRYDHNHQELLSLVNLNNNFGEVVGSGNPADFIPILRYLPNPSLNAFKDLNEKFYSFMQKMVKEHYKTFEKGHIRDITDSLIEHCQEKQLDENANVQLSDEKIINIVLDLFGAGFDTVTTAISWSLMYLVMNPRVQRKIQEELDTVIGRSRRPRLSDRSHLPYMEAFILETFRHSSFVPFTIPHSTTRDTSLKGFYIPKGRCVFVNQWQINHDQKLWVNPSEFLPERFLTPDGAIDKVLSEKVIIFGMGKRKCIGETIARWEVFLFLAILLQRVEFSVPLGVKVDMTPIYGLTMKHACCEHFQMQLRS

[29] = tested on: A549; assay: Cytotoxicity against human A549 cells assessed as reduction in cell growth incubated for 48 hrs by MTT assay; format: functional, cell-based; settings: A549, 48 h
[30] = tested on: SK-OV-3; assay: Antiproliferative activity against human SK-OV-3 cells assessed as reduction in cell viability incubated for 48 hrs by MTT assay; format: functional, cell-based; settings: SK-OV-3, 48 h
[31] = tested on: A2780; assay: Antiproliferative activity against human A2780 cells assessed as reduction in cell viability incubated for 48 hrs by MTT assay; format: functional, cell-based; settings: A2780, 48 h
[32] = tested on: HCT-116; assay: Cytotoxicity against human HCT-116 cells assessed as reduction in cell viability incubated for 48 hrs by SRB assay; format: functional, cell-based; settings: HCT-116, 48 h

Compound: CN1CCN(CCCOc2cc(-c3oc4cc(O)cc(O)c4c(=O)c3O)ccc2O)CC1
- IC50 [1]: 0.48 µM

Compound: CC(=O)OCC1=C2[C@@H](OC(C)=O)C[C@@](C)(OC(C)=O)C(=O)CC[C@@]3(C)O[C@@H]3[C@@]2(OC(C)=O)OC1=O
- CC50 [2]: 3.1 µM

Compound: COc1cc(/C=C/c2cc(/C=C/c3ccc(O)c(OC)c3)n(-c3c(Cl)cccc3Cl)c(=O)n2)ccc1O
- GI50 [3]: 2.64 µM

Compound: CCC(=O)OCC(=O)[C@@]1(C)CC[C@H]2C(=C[C@@H]3OC(=O)[C@@]4(C)[C@@H]3[C@]23CC[C@]4(O)OC3)C1
- IC50 [4]: 13.5 µM
- IC50 [5]: 3.2 µM
- IC50 [6]: 3.14 µM
- IC50 [7]: 3.62 µM
- IC50 [8]: 3.59 µM

Compound: C/C(=N\NC(=O)c1ccc(O)cc1)c1ccc(NC(=O)Cn2c(=O)c3c(ncn3C)n(C)c2=O)cc1
- IC50 [9]: 0.22 µM
- IC50 [10]: 0.42 µM

Compound: C/C=C/c1ccc(OCc2ccc(Cl)cc2)c(OC)c1
- IC50 [11]: 6.59 µM
- inhibition at 100 µM [12]: 87.5%

Compound: COc1c2c(cc3c1OCO3)[C@]13C=C[C@H](OC)C[C@H]1N(C2)C[C@H]3OC(=O)c1ccc(Cl)c([N+](=O)[O-])c1
- IC50 [13]: 0.8 µM
- IC50 [14]: 1.9 µM
- IC50 [15]: 1.4 µM
- IC50 [16]: 0.6 µM
- IC50 [17]: 0.7 µM

Compound: CC1(C)CC[C@]2(C(=O)N3CCOCC3)CC[C@]3(C)C(=CC[C@@H]4[C@@]5(C)CC/C(=N\OC(=O)CBr)C(C)(C)[C@@H]5CC[C@]43C)[C@@H]2C1
- IC50 [18]: 100 µM
- IC50 [19]: 100 µM

Compound: CCNC(=O)CC[C@H](NC(=O)c1cc2cc(Br)ccc2oc1=O)C(=O)OCC
- IC50 [20]: 250 µM

Compound: COc1ccc2c(CCCc3ccc(Cl)cc3Cl)c3[n+](cc2c1OC)CCc1cc2c(cc1-3)OCO2
- IC50 [21]: 6.3 µM

Compound: Cn1c2ccccc2c(=O)c2c(OCCCOc3cc4c(c5c3c(=O)c3ccccc3n5C)C=CC(C)(C)O4)cc3c(c21)C=CC(C)(C)O3
- IC50 [22]: 13.2 µM
- IC50 [23]: 4.49 µM

Compound: C[C@@H]1CC[C@H]2[C@@H](C)C(OC(=O)CCC(=O)O)O[C@@H]3O[C@@]4(C)CC[C@@H]1[C@]32OO4 (single isomer, unassigned)
- IC50 [24]: 43.8 µM

Compound: CCCCCCCCCCCC(=O)O[C@H]1C(C)=C[C@]23C(=O)[C@@H](C=C(CO)[C@@H](O)[C@]12O)[C@H]1[C@@H](C[C@H]3C)C1(C)C
- IC50 [25]: 3.58 µM
- IC50 [26]: 1.88 µM

Compound: COc1c2occc2c(OC)c2c(=O)cc(-c3ccc(F)c(Br)c3)oc12
- Ratio IC50 [27]: 170
- IC50 [28]: 0.14 µM

Compound: COc1ccc(CC(=O)OCC2=CC[C@@H]3[C@](C)(CO)[C@H](O)CC[C@@]3(C)[C@@H]2/C=C/C2=CCOC2=O)cc1
- IC50 [29]: 3.5 µM

Compound: CC1=C(O)C(=O)C=C2C1=CC=C1[C@@]2(C)CC[C@@]2(C)[C@@H]3C[C@](C)(C(=O)N4CCN(C(C)C)CC4)CC[C@]3(C)CC[C@]12C
- IC50 [30]: 0.47 µM
- IC50 [31]: 0.87 µM

Compound: C[C@H]1CC[C@@H]2[C@@H](OC(=O)[C@]23C[C@H]2CCCN2C32C(=O)c3ccccc3C2=O)[C@]2(C)C(=O)C=C[C@@]12O
- IC50 [32]: 5 µM

— ChEMBL document CHEMBL6177938, “Semisynthetic phytochemicals in cancer treatment: a medicinal chemistry perspective” (RSC Med Chem, 2024)
